Patent US20210290597A1, “METHOD OF TREATING A CONDITION ASSOCIATED WITH NEURODEGENERATION USING INHIBITORS OF OAT3” (Neuropore Therapies, Inc., priority 2018, published 2021)
pIC50: −log10 of the molar value. Read-outs that look alike come from different tables or passages of the source.

Tests used:
[1] = molecular target: T1, human transporter OAT3 (Homo sapiens, UniProt Q8TCC7); assay: In vitro transport assay 2, OAT3; format: cell-based
T1 construct: expressed in transfected cells; host or cells: MDCK-II
T1 sequence (Q8TCC7 1-542): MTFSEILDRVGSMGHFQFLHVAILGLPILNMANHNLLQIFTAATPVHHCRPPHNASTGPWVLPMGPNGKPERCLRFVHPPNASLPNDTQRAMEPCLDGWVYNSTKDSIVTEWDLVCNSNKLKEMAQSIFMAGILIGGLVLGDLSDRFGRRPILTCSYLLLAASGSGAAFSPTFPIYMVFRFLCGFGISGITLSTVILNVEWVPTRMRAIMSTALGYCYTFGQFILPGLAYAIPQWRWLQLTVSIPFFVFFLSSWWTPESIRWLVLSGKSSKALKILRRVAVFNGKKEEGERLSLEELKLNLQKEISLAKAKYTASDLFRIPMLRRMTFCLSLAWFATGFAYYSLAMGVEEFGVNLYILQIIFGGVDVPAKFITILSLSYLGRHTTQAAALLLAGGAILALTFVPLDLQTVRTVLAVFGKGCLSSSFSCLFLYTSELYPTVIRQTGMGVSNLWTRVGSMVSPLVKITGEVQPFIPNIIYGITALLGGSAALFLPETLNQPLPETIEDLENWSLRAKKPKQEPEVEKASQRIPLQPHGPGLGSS
Method: Compound 1 was studied in the concentration range of 0.1-10 μM for its potency against transport mediated by various transporter proteins.

[2] = molecular target: T2, human transporter OAT1 (Homo sapiens, UniProt Q4U2R8); assay: In vitro ion transport assay 1, OAT1-mediated uptake in MDCK-II cells; format: cell-based; conditions: probe substrate 2 μM [3H]-p-aminohippurate
T2 construct: expressed in transfected cells; host or cells: MDCK-II
T2 sequence (Q4U2R8 1-563): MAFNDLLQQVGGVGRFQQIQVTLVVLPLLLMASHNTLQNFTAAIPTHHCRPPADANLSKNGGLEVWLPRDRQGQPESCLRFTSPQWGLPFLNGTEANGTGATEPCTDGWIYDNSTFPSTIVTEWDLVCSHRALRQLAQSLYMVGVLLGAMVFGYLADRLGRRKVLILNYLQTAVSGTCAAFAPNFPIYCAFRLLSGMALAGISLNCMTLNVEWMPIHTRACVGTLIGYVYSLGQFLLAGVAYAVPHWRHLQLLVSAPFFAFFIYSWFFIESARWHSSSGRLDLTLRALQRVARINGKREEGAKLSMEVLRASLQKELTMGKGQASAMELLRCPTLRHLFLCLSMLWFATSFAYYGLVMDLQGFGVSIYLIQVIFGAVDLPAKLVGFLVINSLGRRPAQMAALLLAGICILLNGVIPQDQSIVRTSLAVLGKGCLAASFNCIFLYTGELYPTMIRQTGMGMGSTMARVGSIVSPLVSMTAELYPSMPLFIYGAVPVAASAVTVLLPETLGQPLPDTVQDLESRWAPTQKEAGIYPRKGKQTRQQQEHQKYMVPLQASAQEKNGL
Method: To determine the effect of the ion transporter inhibitors on the uptake activity of solute carrier (SLC) ion transporter proteins such as OAT1 and OAT3, an ion transport assay utilizing a polarized monolayer of MDCK-II cells grown on permeable supports was used. The MDCK-II cells were treated to express the transporter of interest (e.g., OAT3 or OAT 1) or were treated with a control vector. 96-well culture plates with both donor and receiver cells containing a monolayer of MDCK-II cells were maintained at 37° C. in 5% CO2 atmosphere. Radio-labeled para-aminohippurate ([3H]-PAH) was used as a substrate for measuring OAT1 and OAT3 mediated transport, where the transport of the substrate was determined by radiometric detection. OAT1-mediated transport was assayed using 2 μM of [3H]-PAH; OAT3-mediated transport was assayed using 10 μM of [3H]-PAH. The probe substrate for OAT1 was 2 μM [3H]-p-aminohippurate. The probe substrate for OAT3 was 10 μM [3H]p-aminohippurate. The reference inhibitor for both assays was 100 μM probenecid. Following pre incubation of the transfected MDCK-II cells in HBSS, [3H]-PAH was added at the concentrations described above. Wells were then treated with either reference inhibitor probeneic acid or with the test compound. Cells transfected with empty vector served as an additional control. […]

[3] = tested on: Translocator Protein (18 kDa) (TSPO); assay: TSPO immunofluorescence in cortex, L61 ASYN transgenic mice, 3 month study; format: in vivo; conditions: 5 and 10 mg/kg i.p. daily, 3 months
Method: Briefly, Compound 1 was injected into L61 ASYN transgenic mice and non-transgenic control mice (i.p., once daily) at doses of 5 and 10 mg/kg for 3 months (79 total mice, n=14-17 mice per treatment group). The vehicle control consisted of a solution containing 5% DMSO+20% Cremphor EL+0.9% normal saline. The baseline grip strength of mice was evaluated prior to starting treatments for the 3 month study, and then re-evaluated following 70 days of treatment with vehicle or Compound 1 (5 or 10 mg/kg, i.p. injection daily).
Neuroinflammation is associated with increased expression of the 18-kDa translocator protein (TSPO), which is a marker for inflammation and is present on the mitochondria of activated microglia, astroglia and macrophages (Crawshaw and Robertson 2017). The effects of Compound 1 on the levels of Translocator Protein (18 kDa) (TSPO) were assessed in both L61 ASYN transgenic and non-transgenic mice in the aforementioned 3 month administration study. At the end of the study, the mice were sacrificed, and immunofluoresence (IF) detection of TSPO were assessed in the harvested brain tissues.
The harvested brain tissues were fixed (drop fixed in 4% paraformaldehyde), sectioned using a vibratome, and representative sections were assessed for TSPO with standard immunofluorescence (IF) staining. […]

O=S(=O)(c1ccc(-n2cn[nH]c2=S)cc1)c1ccc(Cl)c(C(F)(F)F)c1 [Compound 1, 4-(4-((4-chloro-3-(trifluoromethyl)phenyl)sulfonyl)phenyl)-2,4-dihydro-3H-1,2,4-triazole-3-thione]
pIC50 ([1]; 100 nM [3H]-estrone-3-sulfate, read-out: IC50, OAT3 (Substrate: E3S)): 6.05
pIC50 ([1]; 10 μM [3H]-p-aminohippurate, read-out: IC50, OAT3 (Substrate: PAH)): 6.60
pIC50 [2]: 4.89
levels of TSPO in cortex vs vehicle control [3]: significantly decreased
